Test results published in PMC11230492, “Targeting Unique Ligand Binding Domain Structural Features Downregulates DKK1 in Y537S ESR1 Mutant Breast Cancer Cells” (Research Square, 2024).

Target: T1, estrogen receptor alpha (ERα) ligand binding domain (Homo sapiens, UniProt P03372, C381S/C417S/C530S/Y537S)
T1 construct: gene ESR1
T1 sequence (P03372 300-550 C381S/C417S/C530S/Y537S): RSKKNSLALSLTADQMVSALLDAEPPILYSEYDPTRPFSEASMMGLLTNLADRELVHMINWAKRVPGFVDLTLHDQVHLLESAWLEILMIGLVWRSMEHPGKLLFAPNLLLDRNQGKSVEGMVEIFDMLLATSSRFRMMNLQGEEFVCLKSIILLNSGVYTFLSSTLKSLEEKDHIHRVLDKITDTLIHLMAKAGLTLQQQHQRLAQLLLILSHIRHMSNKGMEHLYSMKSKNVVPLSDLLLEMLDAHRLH
Test: X-ray co-crystal structure, […] Å

Compound: O=C(c1ccccc1)N1C(c2ccc(OCC3CCN(CCCF)C3)cc2)c2ccc(O)cc2CC12CC2 (stereo not shown) [T6I-29]
- X-ray co-crystal structure, 2.20 Å: we solved an x-ray co-crystal structure of T6I-29 in complex with Y537S ERα LBD
